Laboratory results published in patent US8435762B2, “Chimeric ligand-gated ion channels and methods of use thereof” (Howard Hughes Medical Institute, priority 2008, dated 2013).
Entries after “also recorded” stand apart in the source; their conditions may differ. Counter-ions that a name gives are not always drawn. Like-named read-outs stand apart in the source and are kept apart here.

Tests used:
α7-5HT3 L141F [1] = molecular target: T1, α7-5HT3 L141F (Homo sapiens, UniProt P36544, L141F/M226I/T225I); experiment: fluorescence membrane potential (MP) assay, HEK 293 cells; type: cell-based, human/mouse; conditions: for EC50: read-out: EC50-MP, α7 L141F, IPD 5HT3, value (s.e.m.)
T1 construct: expressed in transfected cells; host or cells: HEK 293 cells (ATCC CRL-1573)

[2] = molecular target: T2, α7-5HT3 wt chimeric receptor (Homo sapiens, UniProt P36544, M226I/T225I); experiment: as above; type: cell-based, human/mouse; conditions: for activity against α7-5HT3 wt (unmodified) receptor: dose response curves, MP assay; for EC50: read-out: EC50-MP, α7 wt, IPD 5HT3, value (s.e.m.)
T2 construct: expressed in transfected cells; host or cells: HEK 293 cells

α7-5HT3 W77F [3] = molecular target: T3, α7-5HT3 W77F (Homo sapiens, UniProt P36544, M226I/T225I/W77F); experiment: whole cell voltage clamp recordings (Iss, Ipeak); type: cell-based, human/mouse
T3 construct: expressed in transfected cells; host or cells: HEK 293 cells (ATCC CRL-1573)

α7-5HT3 W77F [4] = molecular target: T3, α7-5HT3 W77F; experiment: fluorescence membrane potential (MP) assay, HEK 293 cells; type: cell-based, human/mouse
α7-5HT3 Q79G Q139M = molecular target: T4, α7-5HT3 Q79G Q139M (Homo sapiens, UniProt P36544, M226I/Q139M/Q79G/T225I); experiment: as above; type: cell-based, human/mouse
T4 construct: expressed in transfected cells

untransfected neurons = experiment: rheobase of untransfected cortical neurons; type: cell-based; conditions: even at 30 μM
Text: (§1) FIG. 8. Chimeric α7-GlyR ligand-gated ion channel conducts chloride and greatly reduces excitability of cortical neurons in the presence of the cognate ligand. A. Current trace from voltage clamp recordings in transfected HEK 293 cells showing sustained responses of α7-GlyR and α7-GABA C mutant chimeric receptors to activation by synthetic ligands of the invention. Black line indicates time course of ligand application. […] C. Rheobase, which is the amount of current required to elicit an action potential, is not affected by expression of α7-GlyR L141F Y115F (labeled as condition: PRE). However, rheobase increases 10-fold in the presence of 10 μM compound 89S. There is no change in rheobase in untransfected neurons, even in the presence of 30 μM compound 89S. This reduction of excitability in α7-GlyR L141F Y115F expressing neurons is reversed after washout of the synthetic ligand (labeled as condition: WASH).
(§2) This was measured by the amount of current required to evoke and action potential, also termed rheobase (FIG. 8C). We found no difference in the rheobase of α7-GlyR L141F Y115F expressing neurons and untransfected cells.

[5] = molecular target: T5, α7-5HT3 HC L141F (R425Q R429D R433A) (Homo sapiens, UniProt P36544, L141F/M226I/T225I); experiment: whole cell voltage clamp recordings (Iss, Ipeak); type: cell-based, human/mouse
T5 construct: expressed in transfected cells; host or cells: HEK 293 cells (A14); mouse layer 2/3 cortical neurons (A19)

non-transduced neurons = experiment: excitability of non-transduced cortical neurons; type: cell-based; conditions: even at 30 μM
Experimental: (§3) FIG. 9. Synthetic ligand-induced silencing of a cortical neuron transduced by viral gene delivery α7-GlyR L141F mutant chimeric ligand-gated ion channels. Cortical neurons were transduced with adeno-associated virus (AAV) encoding the α7-GlyR L141F mutant chimeric ligand-gated ion channel under the control of the neuron-specific synapsin promoter. A. Excitability of a transfected cortical neuron before, during, and after administration of compound 89S (10 μM). […] The neuron fires normally with <100 pA injected current before and after the compound administration. B. Excitability of a non-transduced neuron is shown for comparison. Non-transduced neurons are not affected by administration of compound 89S, even at a higher concentration (30 μM).
(§4) The synapsin promoter, which restricts gene expression to neuronal cell types, was used to drive expression of α7-GlyR L141F in an adeno-associated virus (AAV) gene delivery vector.

α7-GABA C L141F = molecular target: T6, α7-GABA C L141F (Homo sapiens, UniProt P36544, L141F); experiment: whole cell voltage clamp recordings (Iss, Ipeak); type: cell-based; conditions: IPD GABAC
T6 construct: expressed in transfected cells; host or cells: HEK 293 cells

[6] = molecular target: T7, α7-GlyR L141F Y115F expressed in layer ⅔ cortical neurons (Homo sapiens, UniProt P36544, L141F/Y115F); experiment: rheobase of layer ⅔ cortical neurons; type: cell-based
T7 construct: expressed in transfected cells; layer 2/3 cortical neurons (A20)
Text: as §1, §2

α7-GlyR L141F = molecular target: T8, α7-GlyR L141F (Homo sapiens, UniProt P36544, L141F); experiment: whole cell voltage clamp recordings (Iss, Ipeak); type: cell-based; conditions: IPD GlyR
T8 construct: expressed in transfected cells; host or cells: HEK 293 cells (A15); cortical neurons transduced with AAV, synapsin promoter (A22)

[7] = molecular target: T9, α7-5HT3 HC L141F expressed in layer ⅔ cortical neurons (Homo sapiens, UniProt P36544, L141F/M226I/T225I); experiment: cell attached recording of firing in layer ⅔ cortical neurons; type: cell-based, mouse; conditions: 3 μM
T9 construct: expressed in transfected cells; host or cells: HEK 293 cells (A14); mouse layer 2/3 cortical neurons (A19)
Text: FIG. 7. High conductance chimeric cationic ligand-gated ion channel activates layer ⅔ cortical neurons. A. Current trace from voltage clamp recordings in HEK 293 cells transfected with high conductance (HC) α7-5HT3 L141F receptors showing sustained response of the receptor to compound 89S. B. Cell attached extracellular recording of action currents from mouse layer ⅔ cortical neurons transfected with HC α7-5HT3 L141F. In addition to the mutation in the ligand binding domain (e.g., L141F), these receptors contain high conductance inducing mutations in the α7-5HT3 sequence: R425Q R429D R433A in SEQ ID NO: 1.
To develop a neuron activating cation channel, we further modified the α7-5HT3 channel with three previously described mutations that were reported to provide a 100-fold increase in conductance: R425Q R429D R433A.

α7-5HT3 L141F [8] = molecular target: T1, α7-5HT3 L141F; experiment: whole cell voltage clamp recordings (Iss, Ipeak); type: cell-based, human/mouse
[9] = molecular target: T10, α7-GlyR L141F in cortical neurons (AAV, synapsin promoter) (Homo sapiens, UniProt P36544, L141F); experiment: excitability of AAV-transduced cortical neurons; type: cell-based; conditions: 10 μM; current injection up to 500 pA
T10 construct: expressed in transfected cells; host or cells: HEK 293 cells (A15); cortical neurons transduced with AAV, synapsin promoter (A22)
Experimental: as §3, §4

α7-GlyR L141F Y115F = molecular target: T11, α7-GlyR L141F Y115F (Homo sapiens, UniProt P36544, L141F/Y115F); experiment: whole cell voltage clamp recordings (Iss, Ipeak); type: cell-based; conditions: IPD GlyR
T11 construct: expressed in transfected cells; layer 2/3 cortical neurons (A20)

α7-5HT3 Q79G [10] = molecular target: T12, α7-5HT3 Q79G (Homo sapiens, UniProt P36544, M226I/Q79G/T225I); experiment: fluorescence membrane potential (MP) assay, HEK 293 cells; type: cell-based, human/mouse; conditions: read-out: EC50-MP; α7 Q79G, IPD 5HT3; value (s.e.m.)
T12 construct: expressed in transfected cells; host or cells: HEK 293 cells (ATCC CRL-1573)

α7-5HT3 Q79G [11] = molecular target: T12, α7-5HT3 Q79G; experiment: whole cell voltage clamp recordings (Iss, Ipeak); type: cell-based, human/mouse
α7-5HT3 Y115F = molecular target: T13, α7-5HT3 Y115F (Homo sapiens, UniProt P36544, M226I/T225I/Y115F); experiment: efficacy on ACh-insensitive mutant; type: cell-based, human/mouse
T13 construct: expressed in transfected cells; host or cells: not restated

[12] = molecular target: T2, α7-5HT3 wt chimeric receptor; experiment: whole cell voltage clamp recordings (Iss, Ipeak); type: cell-based, human/mouse
α7-5HT3 Y210F = molecular target: T14, α7-5HT3 Y210F (Homo sapiens, UniProt P36544, M226I/T225I/Y210F); experiment: efficacy on ACh-insensitive mutant; type: cell-based, human/mouse
T14 construct: expressed in transfected cells; host or cells: not restated

[13] = read-out: EC50-Ipeak, peak current, IPD 5HT3
[14] = read-out: EC50-Iss, steady state current, IPD 5HT3
[15] = EC50-Ipeak, peak current, *complex: multiphasic dose response

T7 sequence (P36544 with tags, fused parts or gaps Y115F/L141F): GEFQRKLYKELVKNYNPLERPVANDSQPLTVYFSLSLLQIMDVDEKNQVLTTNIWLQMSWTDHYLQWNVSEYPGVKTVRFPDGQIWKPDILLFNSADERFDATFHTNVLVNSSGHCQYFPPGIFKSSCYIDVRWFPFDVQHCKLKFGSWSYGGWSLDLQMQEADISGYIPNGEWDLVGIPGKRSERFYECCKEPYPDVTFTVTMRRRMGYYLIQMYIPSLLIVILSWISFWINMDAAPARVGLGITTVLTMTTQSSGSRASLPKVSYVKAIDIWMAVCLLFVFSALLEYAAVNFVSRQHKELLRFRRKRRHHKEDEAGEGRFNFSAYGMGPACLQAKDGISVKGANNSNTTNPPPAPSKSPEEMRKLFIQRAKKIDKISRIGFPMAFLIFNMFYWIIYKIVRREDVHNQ
T3 sequence (P36544 with tags, fused parts or gaps W77F/T225I/M226I): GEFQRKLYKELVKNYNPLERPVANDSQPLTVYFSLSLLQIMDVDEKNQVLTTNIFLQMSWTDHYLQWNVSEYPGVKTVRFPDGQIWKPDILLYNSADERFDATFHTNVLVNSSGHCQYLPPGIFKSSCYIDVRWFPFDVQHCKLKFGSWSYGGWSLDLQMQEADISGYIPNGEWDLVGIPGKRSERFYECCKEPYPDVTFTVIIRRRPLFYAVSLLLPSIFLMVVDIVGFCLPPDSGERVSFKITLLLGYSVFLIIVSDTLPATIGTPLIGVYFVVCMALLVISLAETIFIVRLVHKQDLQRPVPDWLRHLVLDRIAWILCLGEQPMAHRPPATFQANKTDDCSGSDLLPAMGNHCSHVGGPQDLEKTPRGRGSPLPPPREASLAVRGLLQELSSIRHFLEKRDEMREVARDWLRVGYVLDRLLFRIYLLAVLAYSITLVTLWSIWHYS
T12 sequence (P36544 with tags, fused parts or gaps Q79G/T225I/M226I): as the sequence (P36544 with tags, fused parts or gaps W77F/T225I/M226I) above, with F55W, Q57G counted along it
T8 sequence (P36544 with tags, fused parts or gaps L141F): as the sequence (P36544 with tags, fused parts or gaps Y115F/L141F) above, with F93Y counted along it
T1 sequence (P36544 with tags, fused parts or gaps L141F/T225I/M226I): as the sequence (P36544 with tags, fused parts or gaps W77F/T225I/M226I) above, with F55W, L119F counted along it
T2 sequence (P36544 with tags, fused parts or gaps T225I/M226I): as the sequence (P36544 with tags, fused parts or gaps W77F/T225I/M226I) above, with F55W counted along it
T11 sequence (P36544 with tags, fused parts or gaps Y115F/L141F): as the sequence (P36544 with tags, fused parts or gaps Y115F/L141F) above
T5 sequence (P36544 with tags, fused parts or gaps L141F/T225I/M226I): as the sequence (P36544 with tags, fused parts or gaps W77F/T225I/M226I) above, with F55W, L119F, R403Q, R407D, R411A counted along it
T10 sequence (P36544 with tags, fused parts or gaps L141F): as the sequence (P36544 with tags, fused parts or gaps Y115F/L141F) above, with F93Y counted along it
T4 sequence (P36544 with tags, fused parts or gaps Q79G/Q139M/T225I/M226I): as the sequence (P36544 with tags, fused parts or gaps W77F/T225I/M226I) above, with F55W, Q57G, Q117M counted along it
T6 sequence (P36544 with tags, fused parts or gaps L141F): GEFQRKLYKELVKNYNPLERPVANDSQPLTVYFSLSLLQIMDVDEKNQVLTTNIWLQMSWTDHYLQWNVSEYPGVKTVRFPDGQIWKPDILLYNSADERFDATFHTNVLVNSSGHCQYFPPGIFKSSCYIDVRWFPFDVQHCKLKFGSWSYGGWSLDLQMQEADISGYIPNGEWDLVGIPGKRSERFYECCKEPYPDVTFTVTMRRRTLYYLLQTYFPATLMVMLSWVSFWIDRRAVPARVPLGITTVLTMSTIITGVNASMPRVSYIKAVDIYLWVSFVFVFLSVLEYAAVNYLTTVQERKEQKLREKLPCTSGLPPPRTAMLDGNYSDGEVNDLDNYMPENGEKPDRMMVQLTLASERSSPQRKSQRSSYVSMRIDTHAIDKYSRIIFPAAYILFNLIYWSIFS
T13 sequence (P36544 with tags, fused parts or gaps Y115F/T225I/M226I): as the sequence (P36544 with tags, fused parts or gaps W77F/T225I/M226I) above, with F55W, Y93F counted along it
T9 sequence (P36544 with tags, fused parts or gaps L141F/T225I/M226I): as the sequence (P36544 with tags, fused parts or gaps W77F/T225I/M226I) above, with F55W, L119F, R403Q, R407D, R411A counted along it
T14 sequence (P36544 with tags, fused parts or gaps Y210F/T225I/M226I): as the sequence (P36544 with tags, fused parts or gaps W77F/T225I/M226I) above, with F55W, Y188F counted along it

COc1ccccc1C(=O)N[C@@H]1CN2CCC1CC2 [Compound 19S, (S)-2-methoxy-N-(quinuclidin-3-yl)benzamide]
EC50 (α7-5HT3 L141F [1]): 1.4 µM | activity against α7-5HT3 wt (unmodified) receptor [2]: did not induce activate

O=C(N[C@@H]1CN2CCC1CC2)c1ccc(-c2ccccc2)cc1 [Compound 28S, (S)—N-(quinuclidin-3-yl)biphenyl-4-carboxamide TFA]
activity against α7-5HT3 wt (unmodified) receptor [2]: did not induce activate | EC50 (α7-5HT3 W77F [3]; [13]): 11.3 µM | EC50 (α7-5HT3 W77F [3]; [14]): 2.4 µM

O=C(N[C@@H]1CN2CCC1CC2)c1ccc(-c2cccs2)cc1 [Compound 34S, (S)—N-(quinuclidin-3-yl)-4-(thiophen-2-yl)benzamide]
activity against α7-5HT3 wt (unmodified) receptor [2]: did not induce activate | EC50 (α7-5HT3 W77F [4]; α7 W77F, IPD 5HT3; value (s.e.m.); read-out: EC50-MP): 1.4 µM

CS(=O)(=O)c1ccc(C(=O)N[C@H]2CN3CCC2CC3)cc1 [Compound 38R, (R)-4-(methylsulfonyl)-N-(quinuclidin-3-yl)benzamide TFA]
fold improvement in potency (EC50), α7-5HT3 Q79G Q139M relative to α7-5HT3 Q79G (α7-5HT3 Q79G Q139M; EC50MP): 8 fold | EC50 (α7-5HT3 Q79G Q139M; read-out: EC50-MP, α7 Q79G Q139M, IPD 5HT3, value (s.e.m.)): 0.23 ± 0.07 µM | activity against α7-5HT3 wt (unmodified) receptor ([2]; TFA): no activity; also recorded: did not induce activate

COc1ccc(C(=O)N[C@@H]2CN3CCC2CC3)c(OC)c1 [Compound 88S, (S)-2,4-dimethoxy-N-(quinuclidin-3-yl)benzamide]
EC50 (α7-5HT3 L141F [1]): 0.1 ± 0.1 µM | activity against α7-5HT3 wt (unmodified) receptor [2]: no activity

COc1ccc(OC)c(C(=O)N[C@@H]2CN3CCC2CC3)c1 [Compound 89S, (S)-2,5-dimethoxy-N-(quinuclidin-3-yl)benzamide]
change in rheobase in untransfected neurons (untransfected neurons): no change | EC50 ([5]; read-out: EC50-Ipeak, peak current, IPD 5HT3 HC): 2.3 µM | EC50 ([5]; read-out: EC50-Iss, steady state current, IPD 5HT3 HC): 1.5 µM | excitability of non-transduced neurons (non-transduced neurons): unaffected; also recorded: not affected | EC50 (α7-GABA C L141F; EC50-Ipeak, peak current): 8.8 µM | EC50 (α7-GABA C L141F; EC50-Iss, steady state current): 4.9 µM | selectivity for L141F relative to other mutant receptors (α7-5HT3 L141F [1]; FIG. 5 dose response curves): selective | EC50 (α7-5HT3 L141F [1]): 0.4 ± 0.1 µM | activity against α7-5HT3 wt (unmodified) receptor [2]: no activity | increase of rheobase ([6]; 10 μM): 10 fold | reversibility of the effect on neuronal excitability after washout ([6]; washed away with drug-free buffer): rapidly reversible; also recorded: reversed | EC50 (α7-GlyR L141F; EC50-Iss, steady state current): 1.8 µM | EC50-Ipeak (α7-GlyR L141F; peak current, *complex: multiphasic dose response): *complex | firing rate of neurons [7]: sustainably increased | EC50 (α7-5HT3 L141F [8]; [13]): 3.2 µM | EC50 (α7-5HT3 L141F [8]; [14]): 0.7 µM | excitability (silencing) of transduced neurons [9]: rendered sensitive to silencing; also recorded: poorly excitable | EC50 (α7-GlyR L141F Y115F; EC50-Ipeak, peak current): 6.9 µM | EC50 (α7-GlyR L141F Y115F; EC50-Iss, steady state current): 5.2 µM

COc1ccc(Cl)cc1C(=O)N[C@@H]1CN2CCC1CC2 [Compound 118S, (S)-5-chloro-2-methoxy-N-(quinuclidin-3-yl)benzamide TFA]
EC50 (α7-GlyR L141F; [15]): 3.2 µM | EC50 (α7-GlyR L141F; EC50-Iss, steady state current): 3 µM

COc1ccc(F)cc1C(=O)N[C@@H]1CN2CCC1CC2 [Compound 119S, (S)-5-fluoro-2-methoxy-N-(quinuclidin-3-yl)benzamide TFA]
EC50 (α7-GlyR L141F; [15]): 3.8 µM | EC50 (α7-GlyR L141F; EC50-Iss, steady state current): 2.5 µM

O=C(N[C@@H]1CN2CCC1CC2)c1ccc(-c2ccc(F)cc2)cc1 [Compound 132S, (S)-4′-fluoro-N-(quinuclidin-3-yl)biphenyl-4-carboxamide TFA]
selective activation of α7-5HT3 W77F over receptors with Q79G and L141F mutations (α7-5HT3 W77F [4]; FIG. 5 dose response curves): selectively activated | EC50 (α7-5HT3 W77F [4]; read-out: EC50-MP; α7 W77F, IPD 5HT3; value (s.e.m.)): 4.3 ± 0.5 µM

CCCc1ccc(C(=O)N[C@@H]2CN3CCC2CC3)cc1 [Compound 165S, (S)-4-propyl-N-(quinuclidin-3-yl)benzamide TFA]
EC50 (α7-5HT3 Q79G [10]): 1.9 µM | EC50 (α7-5HT3 Q79G [11]; [13]): 5.9 µM | EC50 (α7-5HT3 Q79G [11]; [14]): 0.9 µM

c1ccc2c(c1)CC1C(=NN2)C2CCN1CC2 (stereo not drawn) [Compound 212]
EC50 (α7-5HT3 Q79G [10]): > 100 µM | EC50 (α7-5HT3 L141F [1]): 0.75 µM | EC50 [2]: > 100 µM

O=C(N[C@H]1CN2CCC1CC2)c1ccc(Cl)cc1 [PNU-282987]
efficacy with α7-5HT3 carrying Y115F (α7-5HT3 Y115F): greatly reduced or eliminated | EC50 ([12]; peak current, IPD 5HT3, read-out: EC50-Ipeak): 0.8 µM | EC50 ([12]; steady state current, IPD 5HT3, read-out: EC50-Iss): 0.09 µM | efficacy with α7-5HT3 carrying Y210F (α7-5HT3 Y210F): greatly reduced or eliminated | EC50 [2]: 0.06 µM
